# From ChEMBL document CHEMBL5390272, “Discovery of a potent and selective human AC2 inhibitor based on 7-deazapurine analogues of adefovir” (Bioorg Med Chem, 2023)
# Columns and labels:
# [1] = Inhibition of Bordetella pertussis Adenylate cyclase toxin in mouse J774.A1 cells preincubated for 5 hrs followed by ACT addition and measured after 30 mins by CatchPointcAMP immunoassay method; format: cell-based
# [2] = Cytotoxicity against mouse J774.A1 cells assessed as cell viability at 10 uM incubated for 5 hrs by Cell Titer-Glo Luminescent Cell Viability assay relative to control; format: toxicity, cell-based; conditions: read-out: Activity
# [3] = system: HEK293; assay: Cytotoxicity against AC1 expressed HEK293 cells by CellTiter-Glo 2.0 assay relative to control; format: toxicity, cell-based; set-up: concentration or dose not given beside the values; conditions: human
# [4] = system: NHDF; assay: Cytotoxicity against human NHDF cells by CellTiter-Glo 2.0 assay; format: toxicity, cell-based
# [5] = system: HL-60; assay: Cytotoxicity against human HL-60 cells by CellTiter-Glo 2.0 assay; format: functional, cell-based
# [6] = system: HeLa S3; assay: Cytotoxicity against human HeLa S3 cells by CellTiter-Glo 2.0 assay; format: functional, cell-based
# [7] = system: CCRF-CEM; assay: Cytotoxicity against human CCRF-CEM cells by CellTiter-Glo 2.0 assay; format: functional, cell-based
# [8] = system: HepG2; assay: Cytotoxicity against human HepG2 cells by CellTiter-Glo 2.0 assay; format: functional, cell-based
# [9] = target: T1, Calmodulin-sensitive adenylate cyclase (Bacillus anthracis, UniProt P40136); assay: Inhibition of Bacillus anthracis Edema factor
# T1 sequence (P40136 whole entry): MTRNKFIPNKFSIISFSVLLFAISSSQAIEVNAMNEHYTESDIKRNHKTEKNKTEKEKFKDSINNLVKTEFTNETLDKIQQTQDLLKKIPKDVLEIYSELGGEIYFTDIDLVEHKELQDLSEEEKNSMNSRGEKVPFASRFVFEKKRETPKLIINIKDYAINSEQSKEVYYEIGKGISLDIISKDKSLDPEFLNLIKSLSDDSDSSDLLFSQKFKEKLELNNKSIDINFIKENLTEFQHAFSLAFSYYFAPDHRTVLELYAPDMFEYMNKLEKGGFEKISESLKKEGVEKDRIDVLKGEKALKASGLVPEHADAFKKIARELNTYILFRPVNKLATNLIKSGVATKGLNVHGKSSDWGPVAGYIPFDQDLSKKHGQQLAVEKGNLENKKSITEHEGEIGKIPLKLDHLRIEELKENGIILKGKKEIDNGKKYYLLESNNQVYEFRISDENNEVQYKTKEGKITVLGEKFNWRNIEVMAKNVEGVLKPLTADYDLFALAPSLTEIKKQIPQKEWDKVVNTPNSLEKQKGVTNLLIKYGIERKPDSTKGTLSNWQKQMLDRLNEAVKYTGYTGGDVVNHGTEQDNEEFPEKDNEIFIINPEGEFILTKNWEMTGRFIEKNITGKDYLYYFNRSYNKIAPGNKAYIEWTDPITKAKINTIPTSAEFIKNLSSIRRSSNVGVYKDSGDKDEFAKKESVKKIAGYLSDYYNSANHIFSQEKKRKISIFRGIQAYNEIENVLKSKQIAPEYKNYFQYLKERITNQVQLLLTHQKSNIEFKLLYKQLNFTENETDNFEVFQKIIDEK
Compound,IC50 [1] [µM],"viability at 5 h, 10 µM [2] [%]",Activity [3] [%],IC50 [4] [µM],IC50 [5] [µM],IC50 [6] [µM],IC50 [7] [µM],IC50 [8] [µM],IC50 [9] [µM]
CC(C)OC(=O)[C@H](Cc1ccccc1)NP(=O)(COCCn1cc(-c2cccc(C(N)=O)c2)c2c(N)ncnc21)N[C@@H](Cc1ccccc1)C(=O)OC(C)C,2.5,85,94,> 10,5.75,> 10,> 10,> 10,
CC(C)OC(=O)[C@H](Cc1ccccc1)NP(=O)(COCCn1cc(-c2cccc(-c3nn[nH]n3)c2)c2c(N)ncnc21)N[C@@H](Cc1ccccc1)C(=O)OC(C)C,> 10,94,110,> 10,> 10,> 10,> 10,> 10,
CCOC(=O)[C@H](C)NP(=O)(COCCn1cc(-c2ccc(OC)cc2)c2c(N)ncnc21)Oc1ccccc1 (stereo partly drawn),5.41,104,,> 10,> 10,> 10,> 10,> 10,
Nc1ncnc2c1ncn2CCOCP(=O)(O)OP(=O)(O)OP(=O)(O)O [ADEFOVIR DIPHOSPHATE],,,,,,,,,0.0135
COc1ccc(-c2cn(CCOCP(=O)(O)OP(=O)(O)OP(=O)(O)O)c3ncnc(N)c23)cc1,0.186,,,,,,,,0.0884
COc1ccccc1-c1cn(CCOCP(=O)(N[C@@H](Cc2ccccc2)C(=O)OC(C)C)N[C@@H](Cc2ccccc2)C(=O)OC(C)C)c2ncnc(N)c12,2.17,112,-12,> 10,6.61,3.65,6.2,4.57,
COc1ccc(-c2cn(CCOCP(=O)(N[C@@H](Cc3ccccc3)C(=O)OC(C)C)N[C@@H](Cc3ccccc3)C(=O)OC(C)C)c3ncnc(N)c23)cc1,1.49,112,-17,> 10,6.52,,5.81,> 10,
CC(C)OC(=O)[C@H](Cc1ccccc1)NP(=O)(COCCn1cc(C#Cc2ccccc2)c2c(N)ncnc21)N[C@@H](Cc1ccccc1)C(=O)OC(C)C,> 10,116,-9,> 10,4.75,5.3,4.49,7.24,
C=C(C)c1cn(CCOCP(=O)(N[C@@H](Cc2ccccc2)C(=O)OC(C)C)N[C@@H](Cc2ccccc2)C(=O)OC(C)C)c2ncnc(N)c12,> 10,81,31,> 10,4.62,> 10,5.64,8.73,
Nc1ncnc2c1c(-c1ccccn1)cn2CCOCP(=O)(O)OP(=O)(O)OP(=O)(O)O,0.108,,,,,,,,0.0508
CC(C)OC(=O)[C@H](Cc1ccccc1)NP(=O)(COCCn1cc(-c2cccc(C(=O)O)c2)c2c(N)ncnc21)N[C@@H](Cc1ccccc1)C(=O)OC(C)C,6.09,104,115,> 10,> 10,> 10,> 10,> 10,
COc1ccc(-c2cn(CCOCP(=O)(OCOC(=O)C(C)(C)C)OCOC(=O)C(C)(C)C)c3ncnc(N)c23)cc1,10.2,85,,> 10,> 10,> 10,> 10,> 10,
Cc1cn(CCOCP(=O)(O)OP(=O)(O)OP(=O)(O)O)c2ncnc(N)c12,0.062,,,,,,,,0.108
CC(C)OC(=O)[C@H](Cc1ccccc1)NP(=O)(COCCn1cc(-c2ccco2)c2c(N)ncnc21)N[C@@H](Cc1ccccc1)C(=O)OC(C)C,,43,-9,0.35,0.66,1.29,0.99,0.99,
